Measurements: patent publication US20070128217A1 (priority 2003, published 2007)

Columns and labels:
[1] = system: rabbit serum obtained by immunizing a rabbit with the SARS-CoV strain Frankfurt 1; assay type: binding; design: Binding of a rabbit serum to linear peptides / Binding of a rabbit serum to looped peptides / Rabbit serum linear peptides / Rabbit serum looped peptides / Binding of a rabbit serum to linear peptides of protein N of SARS-CoV Urbani (Rabbit serum linear peptides) / Binding of a rabbit serum to looped/cyclic peptides of protein N of SARS-CoV Urbani (Rabbit serum looped peptides): unit not given here
[2] = system: control sera (pooled serum of ten healthy LUMC hospital workers; commercial negative donor pooled serum from the Dutch bloodbank); assay type: binding, human; design: Binding of Control serum LUMC to linear peptides / Binding of Control serum Blood-bank to linear peptides / Binding of Control serum LUMC to looped peptides / Binding of Control Serum Blood-Bank to Looped peptides / Binding of Control serum LUMC to linear peptides of the protein M of SARS-CoV Urbani / Binding of Control serum Blood-bank to linear peptides of the protein M of SARS-CoV Urbani / Binding of Control serum LUMC to looped peptides of the protein M of SARS-CoV Urbani / Binding of Control Serum Blood-Bank to Looped peptides of the protein M of SARS-CoV Urbani: unit not given here

Row | Sequence | Binding of a rabbit serum to linear peptides [1] | Binding of a rabbit serum to looped peptides [1] | Binding of Control Serum Blood-Bank to Looped peptides [2] | Binding of Control serum Blood-bank to linear peptides [2] | Binding of Control serum LUMC to linear peptides [2] | Binding of Control serum LUMC to looped peptides [2] | Rabbit serum linear peptides [1] | Rabbit serum looped peptides [1] | Binding of Control Serum Blood-Bank to Looped peptides of the protein X3 of SARS-CoV Urbani [2] | Binding of Control serum Blood-bank to linear peptides of the protein X3 of SARS-CoV Urbani [2] | Binding of Control serum LUMC to linear peptides of the protein X3 of SARS-CoV Urbani [2] | Binding of Control serum LUMC to looped peptides of the protein X3 of SARS-CoV Urbani [2] | Recognition of the peptide by the rabbit serum [1] | Binding of Control Serum Blood-Bank to Looped peptides of the protein M of SARS-CoV Urbani [2] | Binding of Control serum Blood-bank to linear peptides of the protein M of SARS-CoV Urbani [2] | Binding of Control serum LUMC to linear peptides of the protein M of SARS-CoV Urbani [2] | Binding of Control serum LUMC to looped peptides of the protein M of SARS-CoV Urbani [2]
1 | DYCIPYNSVTDTIVV | 0.1 | 0.5 | 0.7 | 0.7 | 0.6 | 0.9 |  |  |  |  |  |  |  |  |  |  | 
2 | ECVRGTTVLLKEPCP |  |  | 0.9 | 0.9 | 0.7 | 0.8 | 0.6 | 0.4 |  |  |  |  |  |  |  |  | 
3 | EGHQTAAFRDVLVVL |  |  | 0.9 | 0.7 | 0.9 | 1.6 | 0.3 | 0.6 |  |  |  |  |  |  |  |  | 
4 | EILIIIMRTFRIAIW |  |  |  |  |  |  | 0.5 | 0.3 | 0.6 | 0.8 | 0.5 | 0.6 |  |  |  |  | 
5 | ELYHYQECVRGTTVL |  |  | 0.7 | 0.7 | 0.6 | 0.7 | 0.7 | 0.7 |  |  |  |  |  |  |  |  | 
6 | FFIFNKLVKDPPNVQ | 0.1 | 0.5 | 0.5 | 0.6 | 0.7 | 0.6 |  |  |  |  |  |  |  |  |  |  | 
7 | FIFNKLVKDPPNVQI | 0.1 | 0.7 | 0.8 | 0.8 | 0.8 | 0.7 |  |  |  |  |  |  |  |  |  |  | 
8 | FKPLTKKNYSELDDE |  |  |  |  |  |  | 0.5 | 0.5 | 0.8 | 0.8 | 0.8 | 0.8 |  |  |  |  | 
9 | FQHQNSKKTTKLVVI |  |  | 0.4 | 0.5 | 0.7 | 0.5 |  |  |  |  |  |  | recognized |  |  |  | 
10 | FTLGSITAQPVKIDN | 0.7 | 0.8 | 1.6 | 0.5 | 0.6 | 1.2 |  |  |  |  |  |  |  |  |  |  | 
11 | FVCWHTHNYDYCIPY | 0.1 | 0.7 | 0.5 | 0.6 | 0.7 | 0.6 |  |  |  |  |  |  |  |  |  |  | 
12 | GASQRVGTDSGFAAY |  |  |  |  |  |  | 0.1 | 0.1 |  |  |  |  |  | 0.7 | 0.9 | 0.9 | 0.7
13 | GGYSEDRHSGVKDYV | 0.1 | 0.2 | 0.4 | 0.6 | 0.4 | 0.5 |  |  |  |  |  |  |  |  |  |  | 
14 | GHQTAAFRDVLVVLN |  |  | 0.6 | 0.5 | 0.8 | 0.6 | 0.1 | 0.5 |  |  |  |  |  |  |  |  | 
15 | GIAIAMACIVGLMWL |  |  |  |  |  |  | 0.3 | 0.1 |  |  |  |  |  | 0.7 | 0.8 | 0.5 | 0.8
16 | GISTPKLKEDYQIGG | 0.1 | 0.3 | 0.4 | 0.5 | 0.4 | 0.4 |  |  |  |  |  |  |  |  |  |  | 
17 | GNYKLNTDHAGSNDN |  |  |  |  |  |  | 0.0 | 0.2 |  |  |  |  |  | 0.6 | 0.6 | 0.7 | 0.7
18 | GSITAQPVKIDNASP | 0.2 | 0.4 | 0.6 | 0.6 | 0.6 | 0.5 |  |  |  |  |  |  |  |  |  |  | 
19 | GSSGVANPAMDPIYD | 0.1 | 0.5 | 0.4 | 0.6 | 0.7 | 0.4 |  |  |  |  |  |  |  |  |  |  | 
20 | GTQVLKTMSLYMAIS | 0.2 | 0.4 | 0.7 | 0.6 | 0.6 | 0.6 |  |  |  |  |  |  |  |  |  |  | 
21 | GTTVLLKEPCPSGTY |  |  | 0.7 | 0.7 | 0.7 | 0.8 | 0.4 | 0.4 |  |  |  |  |  |  |  |  | 
22 | GTYEGNSPFHPLADN |  |  | 0.9 | 0.7 | 0.8 | 0.7 | 0.6 | 0.5 |  |  |  |  |  |  |  |  | 
23 | GVKDYVVVHGYFTEV | 0.1 | 0.7 | 1.1 | 0.5 | 0.7 | 1.3 |  |  |  |  |  |  |  |  |  |  | 
24 | HNYDYCIPYNSVTDT | 0.1 | 0.5 | 0.7 | 0.3 | 0.4 | 0.6 |  |  |  |  |  |  |  |  |  |  | 
25 | HPLADNKFALTCTST |  |  | 0.8 | 0.7 | 0.6 | 0.9 | 0.5 | 0.1 |  |  |  |  |  |  |  |  | 
